This experiment has as its target GTPase KRas [G12V]/RAF proto-oncogene serine/threonine-protein kinase (Homo sapiens, UniProt P01116, G12V). Description: KRAS/RAF1 Binding Inhibition Assay. As to the method:
The test compounds in 2% DMSO (final concentration) at various concentrations were then added to the reaction mixture and incubated for 60 minutes at 4° C.

pIC50: −log10 of the molar value.

For the compound `CCc1c(F)ccc2cc(O)cc(-c3ncc4c(N5CCCNC(=O)C5)nc(OCC5(CN6CCC(CN7CCN(c8ccc9c(c8)CN([C@H]8CCC(=O)NC8=O)C9=O)CC7)CC6)CC5)nc4c3F)c12` [US20250092039, Compound 95], the pIC50 (as a rule, −log10 of the IC50, conventionally taken in molar units) was under 6.70. In the case of `CCc1c(F)ccc2cc(O)cc(-c3ncc4c(N5CCCNC(=O)C5)nc(OCC5(CN6CCC7(CC6)CC(CN6CCN(c8ccc9c(c8)CN([C@H]8CCC(=O)NC8=O)C9=O)CC6)C7)CC5)nc4c3F)c12` [US20250092039, Compound 93] it was at least 6.70.

The values are drawn from BindingDB's records for patent US20250092039 (Tiger Biotherapeutics, 2025).
